One experiment has as its system RPMI-8226. The experiment is described as follows: PBMC and MM cell treatment assay (single culture vs co-culture). The class given is cell-based. The settings on record: Homo sapiens, RPMI-8226, RPMI-8226, read-out: Immune-mediated Cell Killing IC50.
The next experiment has as its system NCI-H929. The experiment is described as above. The class given is cell-based, human. The settings on record: for IC50: Homo sapiens, NCI-H929, NCI-H929, read-out: Immune-mediated Cell Killing IC50. On the procedure: (§1) PBMC and MM Cell Treatment Assay Procedure. Ninety-six-well dishes were pre-coated with anti-CD3 antibody (OKT3, 3 μg/mL) and incubated at 4° C. overnight before the start of the experiment. Frozen PBMC donor cells were thawed at 37° C. for 2 minutes in RPMI medium with 10% FBS and cell counts and viability were measured on the Vi-CELL analyzer. Peripheral blood mononuclear cells were washed and diluted to 1×10^6 cells/mL and dispensed into the compound-treated plates in a total volume of 200 μL. Cells were incubated with compounds for 2 h before being transferred onto anti-CD3-coated plates and incubated for an additional 72 h. At the same time, MM cell lines (NCI-H929, H929-1051, OPM2, OPM2-P10) were diluted to a final concentration of 0.1×10^6 cells/mL and labeled with CellTrace CFSE according to manufacturer's instructions. Multiple myeloma cell lines were then dispensed into compound-treated plates at a total volume of 200 μL and incubated for 72 h. After 72 h, the PBMCs and MM cells were counted and transferred into a U-bottom 96-well plate at a final T:E ratio of 1:5. After 24 h coculture, specific target cell lysis by PBMC cells was measured using Annexin V-AF647 and 7-AAD according to manufacturer's instructions and samples were run on the Attune NxT Cytometer.
(§2) Because preincubation of immune cells with Compound 2 enhanced the targeting and lysing of MM cells, the effect of preincubation of MM cells with Compound 2 on their susceptibility to immune-mediated killing was also explored (FIG. 16A, FIG. 16B, FIG. 16C, and FIG. 16D, Table 12). Four MM cell lines and anti-CD3 antibody-activated PBMCs were separately preincubated with Compound 2, lenalidomide, or pomalidomide for 72 h. When anti-CD3 antibody-activated PBMCs and MM lines were both pretreated with Compound 2, lenalidomide, or pomalidomide, followed by co-culture, the effects on the PBMC-induced MM cell lysis were enhanced both in the potency and magnitude of the killing response. […] For the pomalidomide-resistant OPM2-P10 cell line, Compound 2 treatment of the MM cells enhanced the immune-mediated killing by ˜3000-fold (Table 12).

The subject of the next experiment is OPM2-P10. The description is as above. The note with it: for IC50: Homo sapiens, PBMC, read-out: Immune-mediated Cell Killing IC50. The class given is cell-based, human. How it is done: as §1, §2
The subject of a further experiment is H929-1051. The description is as above. The settings on record: for IC50: Homo sapiens, PBMC, read-out: Immune-mediated Cell Killing IC50. In kind it is cell-based, human. On the procedure: as §1, §2
Another experiment deals with SK-MM-2. Put plainly: Flow cytometry proliferation/apoptosis assay (120 h). The note with it: for IC50: Homo sapiens, SK-MM-2, read-out: Antiproliferative Activity (Flow Cytometry) IC50; for induced apoptosis AUC (area under the dose response curve): SKMM-2, scale 0-10000. The class given is cell-based, human. How it is done:
(§3) Methods. […] Using 5 mM stocks, compounds were pre-spotted into the appropriate wells of 96-well plates using a Hewlett-Packard D300 Digital Dispenser. Cells were added to 96-well plates using a Multidrop Combi Reagent Dispenser. After 5 days of treatment, flow cytometric analysis was used to determine the number of cells that were alive, dead, or apoptotic. After 5 days of treatment, cells were incubated with annexin V to stain exposed phosphatidylserine, an apoptotic cell-surface marker, and the vital dye 7-AAD, which is excluded from cells with intact cell membranes, and analyzed by flow cytometry (Attune®, Thermo Fisher). Analysis was then performed to determine the number of live cells (annexin V and 7-AAD double negative staining cells) and the percentage of apoptotic cells (annexin V positive cells) for each condition, relative to the DMSO control treated, was calculated. All described values were normalized to DMSO-only treated cells. All proliferation and apoptosis induction curves were processed and graphed as percent of control using XLFit (IDBS, Alameda, CA) and GraphPad Prism 7.03 (GraphPad Software, La Jolla, CA). The live cell count for every concentration was normalized to the DMSO control (considered as 100%) in Microsoft Excel to generate the proliferation curves. […] Similarly, for apoptosis analysis, the percentage of drug-induced apoptosis was calculated for all doses by combining both “early” (annexin V positive and 7-AAD negative) and “late” apoptosis (annexin V and 7-AAD positive) values and subtracting background values (cell treated with vehicle control DMSO). The AUC values for apoptosis curves were calculated by performing area under curve analysis on GraphPad Prism 7.03. The area under the dose-response curve (AUC) was calculated since it integrates potency and efficacy of the drugs to represent apoptosis into a single parameter. The IC50 values for Compound 2 and pomalidomide in the flow cytometry assays are presented Table 9.
(§4) The apoptosis induction effect of Compound 2 was assessed using flow cytometry after 120 h of treatment and compared with pomalidomide treatment. […] Each data point represents 2 independent experiments with at least two samples in each experiment. (Table 10).
A general note: Flow cytometry measures light scatter and fluorescence of single cells or particles in a stream.

For a further experiment, the system named is CAG. Described as above. The note with it: for IC50: Homo sapiens, read-out: Antiproliferative Activity (Flow Cytometry) IC50; for induced apoptosis AUC (area under the dose response curve): scale 0-10000. The class given is cell-based, human. How it is done:
as §3, §4

In another experiment the test system is L363. The experiment is described as above. In kind it is cell-based, human. The note with it: for IC50: Homo sapiens, L-363, read-out: Antiproliferative Activity (Flow Cytometry) IC50; for induced apoptosis AUC (area under the dose response curve): scale 0-10000. How it is done:
as §3, §4

The subject of another experiment is IM-9. The experiment is described as above. In kind it is cell-based, human. The settings on record: for IC50: Homo sapiens, read-out: Antiproliferative Activity (Flow Cytometry) IC50; for induced apoptosis AUC (area under the dose response curve): scale 0-10000. On the procedure:
as §3, §4

Another experiment deals with U266. The experiment is described as above. In kind it is cell-based, human. The note with it: for IC50: Homo sapiens, U-266, read-out: Antiproliferative Activity (Flow Cytometry) IC50; for induced apoptosis AUC (area under the dose response curve): scale 0-10000. How it is done:
as §3, §4

Another experiment concerns KMS34. The experiment is described as above. In kind it is cell-based, human. The settings on record: for IC50: Homo sapiens, KMS-34, KMS34, read-out: Antiproliferative Activity (Flow Cytometry) IC50; for induced apoptosis AUC (area under the dose response curve): KMS-34, scale 0-10000. How it is done: as §3, §4
Experiment [1] relates to CD38 expression in MM cell lines. Put plainly: Cell surface CD38 expression in MM cells (72 h pretreatment). The class given is cell-based, human. The settings on record: 72 h treatment. On the procedure: FIG. 17. Compound 2 upregulates CD38 expression in MM cell lines. The cell surface expression of CD38 was evaluated in MM cells pretreated with Compound 2 or pomalidomide for 72 h. The dose response effects are shown for OPM-2 and OPM-2.P10 cell lines.
The extent of CD38 expression was greater with Compound 2 and occurred at lower concentrations compared to pomalidomide. MM cells+/−Compound 2 or pomalidomide pretreatment were evaluated in ADCC assays with daratumumab. […] Compound 2 treated cells were also more sensitive to daratumumab-mediated ADCC compared to pomalidomide treated cells. The ability of Compound 2 and pomalidomide to modulate daratumumab-mediated ADCP was also tested.

Like-named read-outs stand apart in the source and are kept apart here.

As usually defined, the IC50 is the concentration at which inhibition is half-maximal. On to `Nc1cccc2c1C(=O)N(C1CCC(=O)NC1=O)C2=O` (stereo not drawn) [Pomalidomide, pomalidomide], for which the IC50 was 67.6 nM in the experiment with RPMI-8226 (Co-culture with PBMCs); more than 10000 nM with RPMI-8226 (Single culture); 44.4 nM in the experiment on NCI-H929 (Co-culture with PBMCs); more than 10000 nM with NCI-H929 (Single culture); 1180 nM in the experiment on OPM2-P10 (Co-culture with PBMCs); more than 10000 nM in the experiment on OPM2-P10 (Single culture). Also, the 50% inhibitory concentration (IC50) in the experiment on H929-1051 (H929-1051, Co-culture with PBMCs) was 71.3 nM; in the experiment on H929-1051 (H929-1051, Single culture) it was more than 10000 nM; in the experiment with SK-MM-2, more than 10000 nM; with CAG, 1080 nM; with L363 it was more than 10000 nM; in the experiment on IM-9, more than 10000 nM. Moreover, the IC50 with U266 was 381 nM; in the experiment on KMS34 it was more than 10000 nM. The “induced apoptosis AUC (area under the dose response curve)” value worked out at 1033 in the experiment on SK-MM-2; 1561 with CAG; 293 in the experiment with L363; 25.4 with IM-9; 373 in the experiment on U266; 429.7 with KMS34. Moreover, in [1], the “CD38 expression in MM cells” value is on record as “dose-dependent increase of CD38 expression”.

On to `N#Cc1ccc(N2CCN(Cc3ccc(COc4cccc5c4CN([C@H]4CCC(=O)NC4=O)C5=O)cc3)CC2)c(F)c1` [Compound 2, (S)-4-(4-(4-(((2-(2,6-dioxopiperidin-3-yl)-1-oxoisoindolin-4-yl)oxy)methyl)benzyl)piperazin-1-yl)-3-fluorobenzonitrile], for which the IC50 was 0.0839 nM in the experiment with RPMI-8226 (Co-culture with PBMCs); 13.4 nM in the experiment with RPMI-8226 (Single culture); 0.087 nM in the experiment with NCI-H929 (Co-culture with PBMCs); 581 nM in the experiment with NCI-H929 (Single culture); 3.1 nM in the experiment with OPM2-P10 (Co-culture with PBMCs); more than 10000 nM with OPM2-P10 (Single culture). Besides, the IC50 in the experiment on H929-1051 (H929-1051, Single culture) was found to be 575 nM; in the experiment with H929-1051 it was 0.1 nM; in the experiment with SK-MM-2 it was 0.82 nM; with CAG, 0.12 nM; with L363 it was 0.16 nM; in the experiment on IM-9 it was 5570 nM. Also, the IC50 with U266 was determined as 0.19 nM; in the experiment on KMS34, 0.45 nM. Further, the “enhancement of killing, co-culture versus single culture IC50” value with NCI-H929 (NCI-H929) is on record as approximately 7000 fold; in the experiment on H929-1051 (H929-1051), approximately 6000 fold. Also, the “enhancement of immune-mediated killing, co-culture versus single culture IC50” value in the experiment on OPM2-P10 is approximately 3000 fold. Besides, the “induced apoptosis AUC (area under the dose response curve)” value in the experiment with SK-MM-2 turned out to be 3204; with CAG, 5804; with L363, 347; in the experiment with IM-9, 323.9; in the experiment on U266, 927.8; in the experiment on KMS34 it was 1614. In experiment [1], the “CD38 expression in MM cells” value is reported as “dose-dependent increase of CD38 expression”.

The record behind these values is patent US12029738B2, “Antiproliferative compounds and methods of use thereof” (Celgene Corporation, priority 2017, dated 2024).
